The values that follow are results of earlier work, collected in patent US20080268034A1, “Solid Oral Dosage Forms of Ziprasidone Containing Colloidal Silicone Dioxide” (priority 2005, published 2008).

The structures appear in SMILES notation.

On to `O=C1Cc2cc(CCN3CCN(c4nsc5ccccc45)CC3)c(Cl)cc2N1` [Ziprasidone free base, 5-[2-[4-(1,2-benzisothiazol-3-yl)-1-piperazinyl]ethyl]-6-chloro-1,3-dihydro-2H-indol-2-one], for which the solubility result is “very poor solubility”.
